Reference: patent publication US12421253B2 (Mirati Therapeutics, Inc., priority 2020, dated 2025)

Legend:
[1] = molecular target: T1, KRas^WT (Homo sapiens, UniProt P01116); assay: KRas binding assay (TR-FRET displacement of Cy5 labelled tracer)
T1 construct: […]; biotin (biotinylated); purchased Accelegan Inc
Experimental: (§1) The ability of a compound to bind to KRas was measured using a TR-FRET displacement assay. […] After a 60-minute incubation at room temperature, the reaction was measured using a BMG LABTECH CLARIO star Plus via TR-FRET. […] The POC values were fit to a 4-parameter IC50 equation and the IC50 value reported.

[2] = molecular target: T2, KRas^G12A (Homo sapiens, UniProt P01116, G12A); assay: as above
T2 construct: […]; biotin (biotinylated); purchased Accelegan Inc
Experimental: as §1

[3] = molecular target: T3, KRas^G12D (Homo sapiens, UniProt P01116, G12D); assay: as above
T3 construct: […]; biotin (biotinylated); purchased Accelegan Inc
T3 sequence (P01116 1-169 isoform P01116-2 G12D): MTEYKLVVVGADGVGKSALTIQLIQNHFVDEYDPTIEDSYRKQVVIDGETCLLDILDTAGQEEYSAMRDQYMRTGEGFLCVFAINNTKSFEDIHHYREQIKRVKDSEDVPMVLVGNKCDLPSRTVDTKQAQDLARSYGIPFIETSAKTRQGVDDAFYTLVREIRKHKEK
Experimental: as §1

[4] = molecular target: T4, KRas^G12R (Homo sapiens, UniProt P01116, G12R); assay: as above
T4 construct: […]; biotin (biotinylated); purchased Accelegan Inc
T4 sequence (P01116 1-169 isoform P01116-2 G12R): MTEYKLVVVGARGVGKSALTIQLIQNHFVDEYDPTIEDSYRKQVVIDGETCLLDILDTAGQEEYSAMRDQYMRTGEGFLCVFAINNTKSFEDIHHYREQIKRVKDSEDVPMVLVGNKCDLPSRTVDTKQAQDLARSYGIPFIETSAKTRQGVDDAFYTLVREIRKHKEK
Experimental: as §1

[5] = molecular target: T5, KRas^G12S (Homo sapiens, UniProt P01116, G12S); assay: as above
T5 construct: […]; biotin (biotinylated); purchased Accelegan Inc
T5 sequence (P01116 1-169 isoform P01116-2 G12S): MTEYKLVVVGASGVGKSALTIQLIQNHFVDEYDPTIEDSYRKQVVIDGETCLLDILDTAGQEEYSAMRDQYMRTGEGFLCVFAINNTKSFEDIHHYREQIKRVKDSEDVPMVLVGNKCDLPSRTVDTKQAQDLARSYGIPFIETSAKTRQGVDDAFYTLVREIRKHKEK
Experimental: as §1

[6] = molecular target: T6, KRas^G12V (Homo sapiens, UniProt P01116, G12V); assay: as above
T6 construct: […]; biotin (biotinylated); purchased Accelegan Inc
T6 sequence (P01116 1-169 isoform P01116-2 G12V): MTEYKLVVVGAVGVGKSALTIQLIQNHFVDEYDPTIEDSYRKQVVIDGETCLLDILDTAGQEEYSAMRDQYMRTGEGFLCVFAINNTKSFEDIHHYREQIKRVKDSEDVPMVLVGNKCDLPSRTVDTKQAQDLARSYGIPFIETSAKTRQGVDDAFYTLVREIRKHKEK
Experimental: as §1

[7] = molecular target: KRas^G12C (Homo sapiens, UniProt P01116, G12C); assay: biochemical
Sequence of KRas^G12C (P01116 1-169 isoform P01116-2 G12C): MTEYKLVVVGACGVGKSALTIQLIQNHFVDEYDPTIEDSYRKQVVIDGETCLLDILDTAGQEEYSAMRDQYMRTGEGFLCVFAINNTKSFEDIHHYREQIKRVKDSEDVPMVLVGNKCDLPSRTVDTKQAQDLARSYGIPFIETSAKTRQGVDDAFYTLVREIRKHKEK
Experimental: as §1

[8] = molecular target: KRas^G13D (Homo sapiens, UniProt P01116, G13D); assay: biochemical
Sequence of KRas^G13D (P01116 1-169 isoform P01116-2 G13D): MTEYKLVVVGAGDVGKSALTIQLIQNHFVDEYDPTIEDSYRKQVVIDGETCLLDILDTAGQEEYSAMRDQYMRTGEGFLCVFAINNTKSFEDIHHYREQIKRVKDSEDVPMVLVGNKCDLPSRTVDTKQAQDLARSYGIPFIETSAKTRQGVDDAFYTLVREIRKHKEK
Experimental: as §1

[9] = molecular target: KRas^Q61H (Homo sapiens, UniProt P01116, Q61H); assay: biochemical
Sequence of KRas^Q61H (P01116 1-169 isoform P01116-2 Q61H): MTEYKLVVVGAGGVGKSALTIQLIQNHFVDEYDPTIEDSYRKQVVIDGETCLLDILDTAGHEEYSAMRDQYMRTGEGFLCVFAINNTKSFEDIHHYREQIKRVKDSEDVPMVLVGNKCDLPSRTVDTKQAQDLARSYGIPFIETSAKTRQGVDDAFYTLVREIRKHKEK
Experimental: as §1

T1 sequence (P01116 1-169 isoform P01116-2): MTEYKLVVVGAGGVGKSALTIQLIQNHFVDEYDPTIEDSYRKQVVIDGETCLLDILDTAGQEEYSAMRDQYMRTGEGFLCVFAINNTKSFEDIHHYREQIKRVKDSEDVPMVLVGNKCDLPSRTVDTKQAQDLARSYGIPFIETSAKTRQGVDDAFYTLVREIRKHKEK
T2 sequence (P01116 1-169 isoform P01116-2 G12A): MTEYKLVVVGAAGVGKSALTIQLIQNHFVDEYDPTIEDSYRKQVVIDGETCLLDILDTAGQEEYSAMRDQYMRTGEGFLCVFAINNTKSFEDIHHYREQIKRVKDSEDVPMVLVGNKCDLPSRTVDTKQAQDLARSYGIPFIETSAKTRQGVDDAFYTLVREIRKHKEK

O=C1NC(=O)C2CN(c3nc(OCC45CCCN4CCC5)nc4c3CCN(c3cccc5cccc(Cl)c35)C4)CC12 (stereo not shown) [Example 79, 5-(7-(8-chloronaphthalen-1-yl)-2-((hexahydro-1H-pyrrolizin-7a-yl)methoxy)-5,6,7,8-tetrahydropyrido[3,4-d]pyrimidin-4-yl)tetrahydropyrrolo[3,4-c]pyrrole-1,3(2H,3aH)-dione]
IC50 [1]: 109 nM | IC50 [2]: 128 nM | IC50 [3]: 53 nM | IC50 [4]: 135 nM | IC50 [5]: 35 nM | IC50 [6]: 67 nM | IC50 [7]: 116 nM | IC50 [8]: 111 nM | IC50 [9]: 151 nM

CCc1cccc2cccc(N3CCc4c(nc(OCC56CCCN5CCC6)nc4NC4CC(=O)N(c5cnn(C)c5)C4)C3)c12 (stereo not shown) [Example 126, 4-((7-(8-ethylnaphthalen-1-yl)-2-((tetrahydro-1H-pyrrolizin-7a(5H)-yl)methoxy)-5,6,7,8-tetrahydropyrido[3,4-d]pyrimidin-4-yl)amino)-1-(1-methyl-1H-pyrazol-4-yl)pyrrolidin-2-one]
IC50 [1]: 4260 nM | IC50 [2]: 5900 nM | IC50 [3]: 720 nM | IC50 [4]: 3290 nM | IC50 [5]: 2910 nM | IC50 [6]: 2750 nM | IC50 [7]: 2740 nM | IC50 [8]: 5680 nM | IC50 [9]: 5450 nM

CCc1cccc2cccc(N3CCc4c(nc(OCC56CCCN5CCC6)nc4N4CCCC(c5noc(C(F)(F)F)n5)C4)C3)c12 (stereo not shown) [Example 163, 3-(1-(7-(8-ethylnaphthalen-1-yl)-2-((tetrahydro-1H-pyrrolizin-7a(5H)-yl)methoxy)-5,6,7,8-tetrahydropyrido[3,4-d]pyrimidin-4-yl)piperidin-3-yl)-5-(trifluoromethyl)-1,2,4-oxadiazole]
IC50 [3]: 7110 nM | IC50 [4]: 3460 nM | IC50 [6]: 5170 nM

Oc1cc(N2CCc3c(nc(OC[C@@]45CCCN4C[C@H](F)C5)nc3N3CC4CC(O)CC3C4)C2)c2c(Br)c(F)ccc2c1 (single isomer, unassigned) [Example 214]
IC50 [3]: 558 nM | IC50 [4]: 54 nM | IC50 [6]: 118 nM

CCc1cccc2cccc(N3CCc4c(nc(OCC56CCCN5CCC6)nc4N4CCCCC(CO)C4)C3)c12 (stereo not shown) [Example 38, (1-(7-(8-ethylnaphthalen-1-yl)-2-((hexahydro-1H-pyrrolizin-7a-yl)methoxy)-5,6,7,8-tetrahydropyrido[3,4-d]pyrimidin-4-yl)azepan-3-yl)methanol]
IC50 [1]: 445 nM | IC50 [3]: ≤ 2 nM | IC50 [4]: 485 nM | IC50 [6]: 204 nM

CCc1cccc2cccc(N3CCc4c(nc(OCC56CCCN5CCC6)nc4Nc4cccnc4)C3)c12 [Example 5, 7-(8-ethylnaphthalen-1-yl)-2-((hexahydro-1H-pyrrolizin-7a-yl)methoxy)-N-(pyridin-3-yl)-5,6,7,8-tetrahydropyrido[3,4-d]pyrimidin-4-amine]
IC50 [3]: 19100 nM | IC50 [4]: 8070 nM | IC50 [6]: 7650 nM

CCc1cccc2cccc(N3CCc4c(nc(OCC56CCCN5CCC6)nc4N4CCOCC(CO)C4)C3)c12 (stereo not shown) [Example 37, (4-(7-(8-ethylnaphthalen-1-yl)-2-((hexahydro-1H-pyrrolizin-7a-yl)methoxy)-5,6,7,8-tetrahydropyrido[3,4-d]pyrimidin-4-yl)-1,4-oxazepan-6-yl)methanol]
IC50 [1]: 214 nM | IC50 [3]: 479 nM | IC50 [4]: 168 nM | IC50 [6]: 221 nM

Oc1cc(N2CCc3c(nc(OC[C@@]45CCCN4C[C@H](F)C5)nc3N3CC4CC(O)CC3C4)C2)c2c(Cl)c(F)ccc2c1 (single isomer, unassigned) [Example 77]
IC50 [3]: 740 nM | IC50 [4]: 165 nM | IC50 [6]: 188 nM

CCc1cccc2cccc(N3CCc4c(nc(OCC56CCCN5CCC6)nc4N4CCC(O)CC(CO)C4)C3)c12 (single isomer, unassigned) [Example 173, 1-(7-(8-ethylnaphthalen-1-yl)-2-((hexahydro-1H-pyrrolizin-7a-yl)methoxy)-5,6,7,8-tetrahydropyrido[3,4-d]pyrimidin-4-yl)-6-(hydroxymethyl)azepan-4-ol]
IC50 [3]: 1160 nM | IC50 [4]: 307 nM | IC50 [6]: 535 nM

CCc1cccc2cccc(N3CCc4c(nc(OCC56CCCN5CCC6)nc4NCC4(C)CSC4)C3)c12 [Example 171, 7-(8-ethylnaphthalen-1-yl)-N-((3-methylthietan-3-yl)methyl)-2-((tetrahydro-1H-pyrrolizin-7a(5H)-yl)methoxy)-5,6,7,8-tetrahydropyrido[3,4-d]pyrimidin-4-amine]
IC50 [3]: 16600 nM | IC50 [4]: 8280 nM | IC50 [6]: 8800 nM

CCc1cccc2cccc(N3CCc4c(nc(OCC56CCCN5CCC6)nc4NCCc4ccno4)C3)c12 [Example 169, 7-(8-ethylnaphthalen-1-yl)-N-(2-(isoxazol-5-yl)ethyl)-2-((tetrahydro-1H-pyrrolizin-7a(5H)-yl)methoxy)-5,6,7,8-tetrahydropyrido[3,4-d]pyrimidin-4-amine]
IC50 [3]: 8480 nM | IC50 [4]: 5120 nM | IC50 [6]: 7170 nM

CCc1cccc2cccc(N3CCc4c(nc(OCC56CCCN5CCC6)nc4N4CCC(O)CC(CO)C4)C3)c12 (single isomer, unassigned) [Example 172, 1-(7-(8-ethylnaphthalen-1-yl)-2-((hexahydro-1H-pyrrolizin-7a-yl)methoxy)-5,6,7,8-tetrahydropyrido[3,4-d]pyrimidin-4-yl)-6-(hydroxymethyl)azepan-4-ol]
IC50 [3]: 224 nM | IC50 [4]: 153 nM | IC50 [6]: 153 nM

CCc1cccc2cccc(N3CCc4c(nc(OCC56CCCN5CCC6)nc4N4CCCC(O)C4)C3)c12 (stereo not shown) [Example 43, 1-(7-(8-ethylnaphthalen-1-yl)-2-((hexahydro-1H-pyrrolizin-7a-yl)methoxy)-5,6,7,8-tetrahydropyrido[3,4-d]pyrimidin-4-yl)piperidin-3-ol]
IC50 [3]: 552 nM | IC50 [4]: 198 nM | IC50 [6]: 271 nM | IC50 [7]: 271 nM

CCc1cccc2cccc(N3CCc4c(nc(OCC56CCCN5CCC6)nc4N4CCN(c5ccncn5)CC4)C3)c12 [Example 58, 7-(8-ethylnaphthalen-1-yl)-2-((hexahydro-1H-pyrrolizin-7a-yl)methoxy)-4-(4-(pyrimidin-4-yl)piperazin-1-yl)-5,6,7,8-tetrahydropyrido[3,4-d]pyrimidine]
IC50 [3]: 20000 nM | IC50 [4]: 7910 nM | IC50 [6]: 2860 nM | IC50 [7]: 6570 nM

CCc1c(F)ccc2cccc(N3CCc4c(nc(OCC56CCCN5CCC6)nc4N4CCC[C@@](C)(O)C4)C3)c12 [Example 3, (R)-1-(7-(8-ethyl-7-fluoronaphthalen-1-yl)-2-((hexahydro-1H-pyrrolizin-7a-yl)methoxy)-5,6,7,8-tetrahydropyrido[3,4-d]pyrimidin-4-yl)-3-methylpiperidin-3-ol]
IC50 [3]: 16 nM | IC50 [4]: 25 nM | IC50 [6]: 17 nM

CCc1cccc2cccc(N3CCc4c(nc(OCC56CCCN5CCC6)nc4N4CCCC(C)(O)C4)C3)c12 (stereo not shown) [Example 4, 1-(7-(8-ethylnaphthalen-1-yl)-2-((hexahydro-1H-pyrrolizin-7a-yl)methoxy)-5,6,7,8-tetrahydropyrido[3,4-d]pyrimidin-4-yl)-3-methylpiperidin-3-ol]
IC50 [3]: 97 nM | IC50 [4]: 127 nM | IC50 [6]: 90 nM

CCc1cccc2cccc(N3CCc4c(nc(OCC56CCCN5CCC6)nc4N4CCC(O)CC(CO)C4)C3)c12 (single isomer, unassigned) [Example 174, 1-(7-(8-ethylnaphthalen-1-yl)-2-((hexahydro-1H-pyrrolizin-7a-yl)methoxy)-5,6,7,8-tetrahydropyrido[3,4-d]pyrimidin-4-yl)-6-(hydroxymethyl)azepan-4-ol]
IC50 [3]: 287 nM | IC50 [4]: 24 nM | IC50 [6]: 38 nM
